# Marks after values point to notes of the source that are not given here. Where no end group is shown, it is not given here.
# Columns and labels:
# [1] = test system: tumor in BALB/c nude mice; assay: in vivo pharmacodynamics (antitumor) of PEG-modified HM-3 in BALB/c nude mice; details: BALB/c nude mice
# Description: Four different types of mPEG-ALD and mPEG-SC with different molecular weights are selected to modify the polypeptide […](named HM-3), i.e., mPEG-ALD5k, mPEG-ALD10k, mPEG-SC10k, mPEG-SC20k, and modification reaction conditions are explored and optimized.
# CIA mouse models = assay: collagen-induced arthritis (CIA) mouse models; type: in vivo, DBA/1 mice; details: for therapeutic effect on collagen-induced arthritis in mice (conclusion): mouse, in vivo
# AIA rat models = assay: adjuvant-induced arthritis (AIA) rat models; type: in vivo, SD rats; details: for therapeutic effect on adjuvant-induced arthritis in rats (conclusion): rat, in vivo
# cotton ball granuloma = type: in vivo, SD rats; details: day 8; 5 mg/kg sc once a day (Dexamethasone, G2)
# Procedure: The rats are randomly divided into a model control group, a positive control (dexamethasone) group, and mPEG-SC20k-HM-3 groups using subcutaneous injection at a high dose, a medium dose and a low dose, a total of 5 groups, and the drugs are administered to each group of animals by subcutaneous injection, for 7 days in succession.
# Rats in each group are anesthetized with pentobarbital sodium (40 mg/kg) by intraperitoneal injection, and the abdominal coat is cut off. The skin in the middle of the lower abdomen is cut open under aseptic condition, and the incision is about 1 cm long. The subcutaneous tissue is expanded by vascular forceps, and 30 mg of sterile dry cotton balls (weighed accurately by an electronic balance before the test, and undergoing conventional autoclaving and drying for later use) are implanted hypodermically into the groin on one side. The incision is sutured, and an appropriate amount of amoxicillin is sprinkled on the incision to prevent infection.
# The drug is administered on the same day after surgery, and is administered for 7 days in succession. On day 8, the rats are killed by cervical dislocation, the cotton balls are removed surgically, the fat tissue is removed, and the […] at 60° C. The mass of granuloma is expressed in mg (granulomatoma)/100 g (body weight). The granuloma mass difference between each administration group and the model control group is compared, and the inhibition rate is calculated. Data statistical analysis is performed on significant differences between the groups.
# Inhibition rate (%)=(average granuloma mass of model control group−average granuloma mass of administration group)/average granuloma mass of model control group×100%.
# IL-1β = IL-1β production by mouse peritoneal macrophages (LPS, ELISA); type: cell-based, C57BL/6 mice; details: 50 μmoL/L, LPS 5 μg/mL, 48 h
# Procedure: In the test, mice are divided into […], namely a blank control group, a lipopolysaccharide (LPS) model group, a dexamethasone group, and mPEG-SC20k-HM-3 groups at different doses (0.56, 1.12, 2.25, 4.50, 9.00 μmol/L).
# (1) IL-1 production: mice are intraperitoneally injected with 1 mL of broth medium (containing 6% of starch). After three days, mouse peritoneal macrophages are taken aseptically and washed twice with RPMI 1640 medium, and the cell concentration is adjusted to 2×10^6 cells/mL. The cells are injected into a 24-well culture plate, 1 mL per well, and the cells are incubated in a cell incubator for 3 h, and vibrated once every 30 min to make the cells fully adhere. Then the cells are washed twice with culture solution to remove non-adherent cells, are cultured continuously for 48 h after administration, and are centrifuged at 1000 r for 15 min. The supernatant is collected as a sample with IL-1β to be tested. (2) Determination of IL-1 content: various solutions are prepared; tested samples and standard substances with different concentrations (100 μL/well) are added into the corresponding wells, reaction wells are sealed with plate-sealing adhesive tape, and incubation is performed at 37° C. for 90 min; the plate is washed four times; biotinylated antibody working solution (100 μL/well) is added, the reaction wells are sealed with plate-sealing adhesive tape, and incubation is performed at 37° C. for 60 min; the plate is washed four times; enzyme conjugate working solution (100 μL/well) is added, the reaction wells are sealed with plate-sealing adhesive tape, and incubation is performed at 37° C. for 30 min; the plate is washed four times; chromogenic reagent (100 μL/well) is added, and incubation is performed at 37° C. for 10-20 min in the absence of light; stop solution (100 μL/well) is added, and the OD 450 nm absorbance is measured immediately after uniform mixing (within 5 min).
# [2] = Table 1, methotrexate 1 mg/kg, once every 5 days, three times
# [3] = Tables 3 and 5, methotrexate 1 mg/kg
# [4] = Table 2, methotrexate 1 mg/kg, once every 5 days, three times
# [5] = Tables 4 and 6, methotrexate 1 mg/kg
# [6] = high dose 0.8 mg/kg twice a day, 10 days
# [7] = low dose 0.2 mg/kg twice a day, 10 days
# [8] = medium dose 0.4 mg/kg twice a day, 10 days
# [9] = high dose 0.4 mg/kg twice a day, 10 days
# [10] = low dose 0.1 mg/kg twice a day, 10 days
# [11] = medium dose 0.2 mg/kg twice a day, 10 days
# [12] = high dose 3.2 mg/kg twice a day, 10 days
# [13] = low dose 0.8 mg/kg twice a day, 10 days (polypeptide II)
# [14] = medium dose 1.6 mg/kg twice a day, 10 days
# [15] = high dose 1.6 mg/kg three times a day, 10 days
# [16] = low dose 0.4 mg/kg three times a day, 10 days
# [17] = medium dose 0.8 mg/kg three times a day, 10 days
molecule,measurement,setting,value
"CC(=O)O[C@H]1C(=O)[C@@]2(C)[C@H]([C@H](OC(=O)c3ccccc3)[C@]3(O)C[C@H](OC(=O)[C@H](O)[C@@H](NC(=O)c4ccccc4)c4ccccc4)C(C)=C1C3(C)C)[C@]1(OC(C)=O)CO[C@@H]1C[C@@H]2O [paclitaxel, reference compound]",antitumor effect in vivo,[1],44.50%
"CN(Cc1cnc2nc(N)nc(N)c2n1)c1ccc(C(=O)N[C@@H](CCC(=O)O)C(=O)O)cc1 [positive control, methotrexate, reference compound]",clinical scoring,CIA mouse models; [2],8.1 ± 1.2
same,swelling of joints,CIA mouse models; [2],0.76 ± 0.17 mm
same,swelling of paws,CIA mouse models; [2],0.95 ± 0.19 mm
same,clinical scoring,CIA mouse models; [3],2.33 ± 2.73
same,swelling of joints,CIA mouse models; [3],−0.19 mm
same,swelling of paws,CIA mouse models; [3],0.21 ± 0.45 mm
same,clinical scoring,AIA rat models; [4],5.0 ± 1.0
same,swelling of left paw,AIA rat models; [4],3.60 ± 0.72 mm
same,swelling of right paw,AIA rat models; [4],0.68 ± 0.19 mm
same,clinical scoring,AIA rat models; [5],4.00 ± 0.00
same,swelling of left paw,AIA rat models; [5],3.23 ± 1.20 mm
same,swelling of right paw,AIA rat models; [5],0.13 ± 0.33 mm
"C[C@@H]1C[C@H]2[C@@H]3CCC4=CC(=O)C=C[C@]4(C)[C@@]3(F)[C@@H](O)C[C@]2(C)[C@@]1(O)C(=O)CO [Dexamethasone, reference compound]",Inhibition rate of cotton ball granuloma,cotton ball granuloma,61.59** %
same,cotton ball granuloma,cotton ball granuloma,0.11 ± 0.04 mg(cotton ball granuloma)/100 g(weight)
same,IL-1β content,IL-1β,208.19 ± 13.78 pg/mL
same,inhibition at 50 µM,"IL-1β; Mus musculus, Peritoneal macrophage, read-out: Inhibition rate",79%
"ACDCRGDCFCGGGGIVRRADRAAVP (cysteine pairing not given here) [polypeptide I, No. 1]",clinical scoring,CIA mouse models; [6],10.4 ± 1.6
same,swelling of joints,CIA mouse models; [6],1.05 ± 0.31 mm
same,swelling of paws,CIA mouse models; [6],1.29 ± 0.26 mm
same,clinical scoring,CIA mouse models; [7],9.7 ± 1.5
same,swelling of joints,CIA mouse models; [7],0.93 ± 0.23 mm
same,swelling of paws,CIA mouse models; [7],1.10 ± 0.22 mm
same,clinical scoring,CIA mouse models; [8],9.1 ± 1.4
same,swelling of joints,CIA mouse models; [8],0.76 ± 0.17 mm
same,swelling of paws,CIA mouse models; [8],0.92 ± 0.18 mm
same,therapeutic effect on collagen-induced arthritis in mice (conclusion),CIA mouse models,CONCLUSION: polypeptide I has therapeutic effect on collagen-induced arthritis in mice
same,clinical scoring,AIA rat models; [9],6.0 ± 1.2
same,swelling of left paw,AIA rat models; [9],4.77 ± 0.95 mm
same,swelling of right paw,AIA rat models; [9],1.25 ± 0.30 mm
same,clinical scoring,AIA rat models; [10],5.7 ± 1.1
same,swelling of left paw,AIA rat models; [10],4.27 ± 0.85 mm
same,swelling of right paw,AIA rat models; [10],1.18 ± 0.31 mm
same,clinical scoring,AIA rat models; [11],5.3 ± 1.0
same,swelling of left paw,AIA rat models; [11],3.81 ± 0.76 mm
same,swelling of right paw,AIA rat models; [11],0.79 ± 0.18 mm
same,therapeutic effect on adjuvant-induced arthritis in rats (conclusion),AIA rat models,CONCLUSION: polypeptide I has therapeutic effect on adjuvant-induced arthritis in rats
"IVRRADRAAVPGGGGRGD [polypeptide II, No. 2]",clinical scoring,CIA mouse models; [12],2.67 ± 2.34
same,swelling of joints,CIA mouse models; [12],−0.18 mm
same,swelling of paws,CIA mouse models; [12],0.23 ± 0.35 mm
same,clinical scoring,CIA mouse models; [13],2.33 ± 3.14
same,swelling of joints,CIA mouse models; [13],−0.19 mm
same,swelling of paws,CIA mouse models; [13],0.13 ± 0.28 mm
same,clinical scoring,CIA mouse models; [14],5.83 ± 2.93
same,swelling of joints,CIA mouse models; [14],0.35 mm
same,swelling of paws,CIA mouse models; [14],0.45 ± 0.41 mm
same,therapeutic effect on collagen-induced arthritis in mice (conclusion),CIA mouse models,CONCLUSION: polypeptide II has therapeutic effect on collagen-induced arthritis in mice
same,clinical scoring,AIA rat models; [15],7.29 ± 3.40
same,swelling of left paw,AIA rat models; [15],4.98 ± 1.97 mm
same,swelling of right paw,AIA rat models; [15],1.97 ± 1.56 mm
same,clinical scoring,AIA rat models; [16],8.29 ± 4.86
same,swelling of left paw,AIA rat models; [16],5.03 ± 1.99 mm
same,swelling of right paw,AIA rat models; [16],1.56 ± 1.66 mm
same,clinical scoring,AIA rat models; [17],6.57 ± 4.24
same,swelling of left paw,AIA rat models; [17],4.50 ± 1.95 mm
same,swelling of right paw,AIA rat models; [17],1.63 ± 1.57 mm
same,therapeutic effect on adjuvant-induced arthritis in rats (conclusion),AIA rat models,"CONCLUSION: polypeptide II has therapeutic effect on adjuvant-induced arthritis, and its effect is higher than that of polypeptide I."
same,antitumor effect in vivo,[1],43.92%

# Source: patent US20220202912A1, “Polypeptides in Preparation of Drugs for Treatment or Prevention of Rheumatoid Arthritis” (priority 2011, published 2022)
